From patent US20140341916A1, “THERAPEUTIC COMBINATIONS AND METHODS OF TREATING MELANOMA” (Genentech, Inc., priority 2011, published 2014)

Tested on: ETBR surface protein
Assay: Surface ETBR protein in live melanoma cells, FACS
Type: cell-based, human
Settings: 24 h
Procedure: Melanoma cell lines UACC-257X2.2, A2058, COLO 829, IPC-298 (ATCC) were treated with a BRAF inhibitor drug (“BRAFi”), specifically RG7204 at varying concentrations by adding the appropriate drug volume to cells in culture for 24 h on four-well dishes.
(§1) To determine whether the observed increases in total ETBR protein level due to BRAFi treatment also results in an increase of ETBR surface protein levels, a fluorescence-activated cell sorting (FACS) analysis was performed. Cells were harvested in PBS with 2.5 mmol/L EDTA and washed in PBS buffer containing 1% FBS. All subsequent steps were carried out at 4° C. Cells were incubated for 1 hour with 3 μg/mL anti ETBR antibody Hu5E9v1, followed by anti-human IgG fluorescent detection reagent (A11013; Invitrogen). Cells were then analyzed with a FACS Calibur flow cytometer (BD Biosciences). The results for UACC-257X2.2 are shown in FIG. 4C, the results for A2058 are shown in FIG. 8C, and the results for COLO 829 are shown in FIG. 6C.
Melanoma cell lines A2058, COLO 829, SK23-MEL and IPC-298 (ATCC) were treated with a MEK inhibitor drug (“MEKi-973” or “MEKi-623”), at varying concentrations (0 μM, 0.01 μM, 0.1 μM or 1 μM) by adding the appropriate drug volume to cells in culture for 24 h on four-well dishes.
as §1, with “MEKi” for “BRAFi”, “performed as described above.” for “performed.”, “Biosciences).” for “Biosciences). The results for UACC-257X2.2 are shown in FIG. 4C, the results for A2058 are shown in FIG. 8C, and the results for COLO 829 are shown in FIG. 6C.”

SMILES: CCCS(=O)(=O)Nc1ccc(F)c(C(=O)c2c[nH]c3ncc(-c4ccc(Cl)cc4)cc23)c1F [RG7204, propane-1-sulfonic acid {3-[5-(4-chlorophenyl)-1H-pyrrolo[2,3-b]pyridine-3-carbonyl]-2,4-difluoro-phenyl}-amide]
- surface level of ETBR protein vs untreated control cells (A2058 cells): appears to increase the surface levels of ETBR protein
- surface level of ETBR protein vs untreated control cells (COLO 829 cells): appears to increase the surface levels of ETBR protein
- surface level of ETBR protein vs untreated control cells (IPC-298 cells): appears to reduce ETBR levels
- surface level of ETBR protein vs untreated control cells (UACC-257X2.2 cells): appears to increase the surface levels of ETBR protein
